pIC50: −log10 of the molar value.
Assays:
Format in all cases: cell-based
MeWo = experiment: In vitro combination study of Compound 205 with a second agent, melanoma cell proliferation (CellTiter Glo, Loewe synergy); details: combination with Compound 205; for Combinatorial effect (Loewe method) of second agent with Compound 205, MeWo: 7 days pre-treatment with Compound 205, then 7 days co-treatment, ATP content, Loewe volume >1 synergy, -1 to 1 additivity; for Combinatorial effect (Loewe method) of second agent with Compound 205, MeWo: key: SYN Synergy; ADD Additivity
Procedure: (§1) On day 14 plates were developed for endpoint analysis using CellTiter Glo to measure ATP content, which was used as an indicator of cell viability. DMSO concentration was kept constant throughout the assay at 0.2% v/v.
(§2) All cells were maintained and cultured at 37° C., in a humidified atmosphere and 5% CO2.
(§3) Loewe volumes greater than 1 denoted synergy and volumes below −1 denoted antagonism. A value between −1 and 1 denoted additivity.

WM-266-4 = experiment: as above; details: combination with Compound 205; for Combinatorial effect (Loewe method) of second agent with Compound 205, WM-266-4: 7 days pre-treatment with Compound 205, then 7 days co-treatment, ATP content, Loewe volume >1 synergy, -1 to 1 additivity; for Combinatorial effect (Loewe method) of second agent with Compound 205, WM-266-4: key: SYN Synergy; ADD Additivity
Procedure: as §1, §2, §3

CCRF-CEM = experiment: In vitro long term proliferation (LTP), T-ALL cell line; details: Homo sapiens, 336 h, 14 day LTP, absolute IC50, seeding density 100000, read-out: Compound A75 IC50
Procedure: (§4) Exponentially growing T-cell lymphocytic leukemia (T-ALL) cells were plated, in triplicate, in 96-well plates at the appropriate cell density in a final volume of 150 μl. Cells were incubated in the presence of increasing concentrations of Compound A75. Viable cell number was determined at day 0, 4, 7, 11 and 14 days using Calcein staining and using an Accumen instrument to enumerate the number of cells. On days of cell counts, growth media and Compound A75 were replaced and cells split back to initial density. Total cell number is expressed as split-adjusted viable cells per well. For each cell line, absolute IC50 values (concentration of compound at which 50% inhibition occurs) were determined from concentration-dependence curves at 14 days using Graphpad Prism software.

Jurkat = experiment: as above; details: Homo sapiens, 336 h, 14 day LTP, absolute IC50, seeding density 100000, read-out: Compound A75 IC50
Procedure: as §4

MOLT-16 = experiment: as above; details: Homo sapiens, 336 h, 14 day LTP, absolute IC50, seeding density 100000, read-out: Compound A75 IC50
Procedure: as §4

MOLT-4 = experiment: as above; details: Homo sapiens, 336 h, 14 day LTP, absolute IC50, seeding density 100000, read-out: Compound A75 IC50
Procedure: as §4

PEER = experiment: as above; details: Homo sapiens, 336 h, 14 day LTP, absolute IC50, seeding density 250000, read-out: Compound A75 IC50
Procedure: as §4

SUP-T1 = experiment: as above; details: Homo sapiens, 336 h, 14 day LTP, absolute IC50, seeding density 200000, read-out: Compound A75 IC50
Procedure: as §4

TALL-1 = experiment: as above; details: Homo sapiens, 336 h, 14 day LTP, absolute IC50, seeding density 150000, read-out: Compound A75 IC50
Procedure: as §4

CNC(=O)c1cc(Oc2ccc(NC(=O)Nc3ccc(Cl)c(C(F)(F)F)c3)cc2)ccn1 [Sorafenib]
Combinatorial effect (Loewe method) of second agent with Compound 205, MeWo (MeWo): ADD | Combinatorial effect (Loewe method) of second agent with Compound 205, WM-266-4 (WM-266-4): SYN

CO[C@H]1C[C@@H]2CC[C@@H](C)[C@@](O)(O2)C(=O)C(=O)N2CCCC[C@H]2C(=O)O[C@H]([C@H](C)C[C@@H]2CC[C@@H](OCCO)[C@H](OC)C2)CC(=O)[C@H](C)/C=C(\C)[C@@H](O)[C@@H](OC)C(=O)[C@H](C)C[C@H](C)/C=C/C=C/C=C/1C [Everolimus, everolimus]
Combination effect of Compound 205 and Everolimus (figure legend) (MeWo; MeWo melanoma cell line, FIG. 6): synergy | Combinatorial effect (Loewe method) of second agent with Compound 205, MeWo (MeWo): SYN | Combinatorial effect (Loewe method) of second agent with Compound 205, WM-266-4 (WM-266-4): SYN | Combination effect of Compound 205 and Everolimus (figure legend) (WM-266-4; WM-266-4 melanoma cell line, FIG. 6): synergy

CC(C)NC[C@@H](C(=O)N1CCN(c2ncnc3c2[C@H](C)C[C@H]3O)CC1)c1ccc(Cl)cc1 [GDC-0068, (2S)-2-(4-chlorophenyl)-1-[4-[(5R,7R)-7-hydroxy-5-methyl-6,7-dihydro-5H-cyclopenta[d]pyrimidin-4-yl]piperazin-1-yl]-3-(propan-2-ylamino)propan-1-one]
Combinatorial effect (Loewe method) of second agent with Compound 205, MeWo (MeWo): ADD | Combinatorial effect (Loewe method) of second agent with Compound 205, WM-266-4 (WM-266-4): SYN

NC1(c2ccc(-c3nc4ccn5c(=O)[nH]nc5c4cc3-c3ccccc3)cc2)CCC1 [MK-2206]
Combinatorial effect (Loewe method) of second agent with Compound 205, MeWo (MeWo): SYN | Combinatorial effect (Loewe method) of second agent with Compound 205, WM-266-4 (WM-266-4): SYN

CC(=O)c1c(C)c2cnc(Nc3ccc(N4CCNCC4)cn3)nc2n(C2CCCC2)c1=O [Palbociclib, palbociclib]
Combinatorial effect (Loewe method) of second agent with Compound 205, MeWo (MeWo): SYN | Combinatorial effect (Loewe method) of second agent with Compound 205, WM-266-4 (WM-266-4): SYN

Nc1cc(C(F)(F)F)c(-c2cc(N3CCOCC3)nc(N3CCOCC3)n2)cn1 [BKM120, 5-(2,6-dimorpholin-4-ylpyrimidin-4-yl)-4-(trifluoromethyl)pyridin-2-amine]
Combinatorial effect (Loewe method) of second agent with Compound 205, MeWo (MeWo): SYN | Combinatorial effect (Loewe method) of second agent with Compound 205, WM-266-4 (WM-266-4): SYN

CC(=O)Nc1cccc(-n2c(=O)n(C3CC3)c(=O)c3c(Nc4ccc(I)cc4F)n(C)c(=O)c(C)c32)c1 [Trametinib]
Combinatorial effect (Loewe method) of second agent with Compound 205, MeWo (MeWo): ADD | Combinatorial effect (Loewe method) of second agent with Compound 205, WM-266-4 (WM-266-4): ADD

CNC1=Nc2cc(C#CCN3CCCCC3)c(OC)cc2C12CCC2 [Compound A75]
pIC50 (CCRF-CEM): 5.30 to 6.00 | pIC50 (Jurkat): 5.30 to 6.00 | pIC50 (MOLT-16): 6.00 to 7.00 | pIC50 (MOLT-4): 6.00 to 7.00 | pIC50 (PEER): > 7.00 | pIC50 (SUP-T1): 4.82 to 5.30 | pIC50 (TALL-1): 4.82 to 5.30

Cn1cnc2c(F)c(Nc3ccc(Br)cc3Cl)c(C(=O)NOCCO)cc21 [Selumetinib, selumetinib]
Combinatorial effect (Loewe method) of second agent with Compound 205, MeWo (MeWo): ADD | Combinatorial effect (Loewe method) of second agent with Compound 205, WM-266-4 (WM-266-4): ADD

CS(=O)(=O)N1CCN(Cc2cc3nc(-c4cccc5[nH]ncc45)nc(N4CCOCC4)c3s2)CC1 [Pictilisib, 4-[2-(1H-indazol-4-yl)-6-[(4-methylsulfonylpiperazin-1-yl)methyl]thieno[3,2-d]pyrimidin-4-yl]morpholine]
Combinatorial effect (Loewe method) of second agent with Compound 205, MeWo (MeWo): SYN | Combinatorial effect (Loewe method) of second agent with Compound 205, WM-266-4 (WM-266-4): SYN

CC(C)Nc1cc(-c2c[nH]c(C(=O)N[C@H](CO)c3cccc(Cl)c3)c2)c(Cl)cn1 [BVD-523, N-[(1S)-1-(3-chlorophenyl)-2-hydroxyethyl]-4-[5-chloro-2-(propan-2-ylamino)-pyridin-4-yl]-1H-pyrrole-2-carboxamide]
Combinatorial effect (Loewe method) of second agent with Compound 205, MeWo (MeWo): ADD | Combinatorial effect (Loewe method) of second agent with Compound 205, WM-266-4 (WM-266-4): ADD

Reference: US11672800B2, “Combination therapies with EHMT2 inhibitors” (Epizyme, Inc., priority 2017, dated 2023)
